Key:
HEp-2 [1] = assay: Cytotoxicity against human Hep2 cells at 10 uM after 48 hrs by SRB assay; type: functional; conditions: HEp-2, 48 h, read-out: GI
DU-145 [2] = assay: Cytotoxicity against human DU145 cells at 30 uM after 48 hrs by SRB assay; type: functional; conditions: DU-145, 48 h, read-out: GI
HEp-2 [3] = assay: Cytotoxicity against human Hep2 cells at 50 uM after 48 hrs by SRB assay; type: functional; conditions: HEp-2, 48 h, read-out: GI
HEp-2 [4] = assay: Cytotoxicity against human Hep2 cells at 30 uM after 48 hrs by SRB assay; type: functional; conditions: HEp-2, 48 h, read-out: GI
HL-60 [5] = assay: Cytotoxicity against human HL60 cells at 30 uM after 48 hrs by SRB assay; type: functional; conditions: HL-60, 48 h, read-out: GI
SF-295 [6] = assay: Cytotoxicity against human SF295 cells at 30 uM after 48 hrs by SRB assay; type: functional; conditions: SF-295, 48 h, read-out: GI
SF-295 [7] = assay: Cytotoxicity against human SF295 cells at 50 uM after 48 hrs by SRB assay; type: functional; conditions: SF-295, 48 h, read-out: GI
THP-1 [8] = assay: Cytotoxicity against human THP1 cells at 50 uM after 48 hrs by SRB assay; type: functional; conditions: THP-1, 48 h, read-out: GI
A549 [9] = assay: Cytotoxicity against human A549 cells at 30 uM after 48 hrs by SRB assay; type: functional; conditions: A549, 48 h, read-out: GI
HL-60 [10] = assay: Cytotoxicity against human HL60 cells at 10 uM after 48 hrs by SRB assay; type: functional; conditions: HL-60, 48 h, read-out: GI
A549 [11] = assay: Cytotoxicity against human A549 cells at 10 uM after 48 hrs by SRB assay; type: functional; conditions: A549, 48 h, read-out: GI
THP-1 [12] = assay: Cytotoxicity against human THP1 cells at 10 uM after 48 hrs by SRB assay; type: functional; conditions: THP-1, 48 h, read-out: GI
PC-3 [13] = assay: Cytotoxicity against human PC3 cells at 30 uM after 48 hrs by SRB assay; type: functional; conditions: PC-3, 48 h, read-out: GI
A549 [14] = assay: Cytotoxicity against human A549 cells after 48 hrs by SRB assay; type: functional, cell-based; conditions: A549, 48 h
MCF7 [15] = assay: Cytotoxicity against human MCF7 cells at 10 uM after 48 hrs by SRB assay; type: functional; conditions: MCF7, 48 h, read-out: GI
THP-1 [16] = assay: Cytotoxicity against human THP1 cells at 30 uM after 48 hrs by SRB assay; type: functional; conditions: THP-1, 48 h, read-out: GI
A549 [17] = assay: Cytotoxicity against human A549 cells at 50 uM after 48 hrs by SRB assay; type: functional; conditions: A549, 48 h, read-out: GI
DU-145 [18] = assay: Cytotoxicity against human DU145 cells at 50 uM after 48 hrs by SRB assay; type: functional; conditions: DU-145, 48 h, read-out: GI
MCF7 [19] = assay: Cytotoxicity against human MCF7 cells at 30 uM after 48 hrs by SRB assay; type: functional; conditions: MCF7, 48 h, read-out: GI
PC-3 [20] = assay: Cytotoxicity against human PC3 cells after 48 hrs by SRB assay; type: functional, cell-based; conditions: PC-3, 48 h
DU-145 [21] = assay: Cytotoxicity against human DU145 cells at 10 uM after 48 hrs by SRB assay; type: functional; conditions: DU-145, 48 h, read-out: GI
HEp-2 [22] = assay: Cytotoxicity against human Hep2 cells after 48 hrs by SRB assay; type: functional, cell-based; conditions: HEp-2, 48 h
HL-60 [23] = assay: Cytotoxicity against human HL60 cells after 48 hrs by SRB assay; type: functional, cell-based; conditions: HL-60, 48 h
MCF7 [24] = assay: Cytotoxicity against human MCF7 cells after 48 hrs by SRB assay; type: functional, cell-based; conditions: MCF7, 48 h
DU-145 [25] = assay: Cytotoxicity against human DU145 cells after 48 hrs by SRB assay; type: functional, cell-based; conditions: DU-145, 48 h
SF-295 [26] = assay: Cytotoxicity against human SF295 cells at 10 uM after 48 hrs by SRB assay; type: functional; conditions: SF-295, 48 h, read-out: GI
HL-60 [27] = assay: Cytotoxicity against human HL60 cells at 50 uM after 48 hrs by SRB assay; type: functional; conditions: HL-60, 48 h, read-out: GI
HCT-15 [28] = assay: Cytotoxicity against human HCT15 cells after 48 hrs by SRB assay; type: functional, cell-based; conditions: HCT-15, 48 h
THP-1 [29] = assay: Cytotoxicity against human THP1 cells after 48 hrs by SRB assay; type: functional, cell-based; conditions: THP-1, 48 h
HCT-15 [30] = assay: Cytotoxicity against human HCT15 cells at 50 uM after 48 hrs by SRB assay; type: functional; conditions: HCT-15, 48 h, read-out: GI
MCF7 [31] = assay: Cytotoxicity against human MCF7 cells at 50 uM after 48 hrs by SRB assay; type: functional; conditions: MCF7, 48 h, read-out: GI
SF-295 [32] = assay: Cytotoxicity against human SF295 cells after 48 hrs by SRB assay; type: functional, cell-based; conditions: SF-295, 48 h
HCT-15 [33] = assay: Cytotoxicity against human HCT15 cells at 30 uM after 48 hrs by SRB assay; type: functional; conditions: HCT-15, 48 h, read-out: GI
PC-3 [34] = assay: Cytotoxicity against human PC3 cells at 10 uM after 48 hrs by SRB assay; type: functional; conditions: PC-3, 48 h, read-out: GI
PC-3 [35] = assay: Cytotoxicity against human PC3 cells at 50 uM after 48 hrs by SRB assay; type: functional; conditions: PC-3, 48 h, read-out: GI
HCT-15 [36] = assay: Cytotoxicity against human HCT15 cells at 10 uM after 48 hrs by SRB assay; type: functional; conditions: HCT-15, 48 h, read-out: GI

| SMILES | inhibition of growth at 10 µM (HEp-2 [1]) [%] | inhibition of growth at 30 µM (DU-145 [2]) [%] | inhibition of growth at 50 µM (HEp-2 [3]) [%] | inhibition of growth at 30 µM (HEp-2 [4]) [%] | inhibition of growth at 30 µM (HL-60 [5]) [%] | inhibition of growth at 30 µM (SF-295 [6]) [%] | inhibition of growth at 50 µM (SF-295 [7]) [%] | inhibition of growth at 50 µM (THP-1 [8]) [%] | inhibition of growth at 30 µM (A549 [9]) [%] | inhibition of growth at 10 µM (HL-60 [10]) [%] | inhibition of growth at 10 µM (A549 [11]) [%] | inhibition of growth at 10 µM (THP-1 [12]) [%] | inhibition of growth at 30 µM (PC-3 [13]) [%] | IC50 (A549 [14]) [µM] | inhibition of growth at 10 µM (MCF7 [15]) [%] | inhibition of growth at 30 µM (THP-1 [16]) [%] | inhibition of growth at 50 µM (A549 [17]) [%] | inhibition of growth at 50 µM (DU-145 [18]) [%] | inhibition of growth at 30 µM (MCF7 [19]) [%] | IC50 (PC-3 [20]) [µM] | further results |
| --- | --- | --- | --- | --- | --- | --- | --- | --- | --- | --- | --- | --- | --- | --- | --- | --- | --- | --- | --- | --- | --- |
| C=C(C)[C@@H]1CC[C@]2(C(=O)O)CC[C@]3(C)[C@H](CC[C@@H]4[C@@]5(C)CC[C@H](OCc6cn(-c7ccc(Cl)cc7)nn6)C(C)(C)[C@@H]5CC[C@]43C)[C@@H]12 | 28 | 43 | 55 | 43 | 74 | 20 | 32 | 94 | 59 | 61 | 52 | 50 | 40 | 8 | 42 | 69 | 83 | 55 | 63 | 43 | inhibition of growth at 10 µM (DU-145 [21]): 28%; IC50 (HEp-2 [22]): 44 µM; IC50 (HL-60 [23]): 5.5 µM; IC50 (MCF7 [24]): 15 µM; IC50 (DU-145 [25]): 34 µM; inhibition of growth at 10 µM (SF-295 [26]): 5%; inhibition of growth at 50 µM (HL-60 [27]): 96%; IC50 (HCT-15 [28]): 13 µM; IC50 (THP-1 [29]): 10 µM; inhibition of growth at 50 µM (HCT-15 [30]): 66%; inhibition of growth at 50 µM (MCF7 [31]): 80%; IC50 (SF-295 [32]): > 50 µM; inhibition of growth at 30 µM (HCT-15 [33]): 53%; inhibition of growth at 10 µM (PC-3 [34]): 22%; inhibition of growth at 50 µM (PC-3 [35]): 53%; inhibition of growth at 10 µM (HCT-15 [36]): 46% |
| C=C(C)[C@@H]1CC[C@]2(C(=O)O)CC[C@]3(C)[C@H](CC[C@@H]4[C@@]5(C)CC[C@H](OCc6cn(-c7cc(C)cc(O)c7)nn6)C(C)(C)[C@@H]5CC[C@]43C)[C@@H]12 | 9 | 51 | 42 | 25 | 90 | 75 | 90 | 99 | 59 | 24 | 23 | 15 | 74 | 26 | 70 | 85 | 71 | 97 | 96 | 13 | inhibition of growth at 10 µM (DU-145 [21]): 10%; IC50 (HEp-2 [22]): > 50 µM; IC50 (HL-60 [23]): 14 µM; IC50 (MCF7 [24]): 3.8 µM; IC50 (DU-145 [25]): 28 µM; inhibition of growth at 10 µM (SF-295 [26]): 23%; inhibition of growth at 50 µM (HL-60 [27]): 98%; IC50 (HCT-15 [28]): 26 µM; IC50 (THP-1 [29]): 18 µM; inhibition of growth at 50 µM (HCT-15 [30]): 66%; inhibition of growth at 50 µM (MCF7 [31]): 96%; IC50 (SF-295 [32]): 19 µM; inhibition of growth at 30 µM (HCT-15 [33]): 56%; inhibition of growth at 10 µM (PC-3 [34]): 47%; inhibition of growth at 50 µM (PC-3 [35]): 91%; inhibition of growth at 10 µM (HCT-15 [36]): 28% |
| C=C(C)[C@@H]1CC[C@]2(C(=O)O)CC[C@]3(C)[C@H](CC[C@@H]4[C@@]5(C)CC[C@H](OCc6cn(-c7ccccc7CO)nn6)C(C)(C)[C@@H]5CC[C@]43C)[C@@H]12 | 45 | 55 | 64 | 61 | 69 | 72 | 77 | 78 | 55 | 50 | 54 | 45 | 28 | 14 | 50 | 65 | 57 | 65 | 72 | 49 | inhibition of growth at 10 µM (DU-145 [21]): 43%; IC50 (HEp-2 [22]): 14 µM; IC50 (HL-60 [23]): 10 µM; IC50 (MCF7 [24]): 10 µM; IC50 (DU-145 [25]): 16 µM; inhibition of growth at 10 µM (SF-295 [26]): 35%; inhibition of growth at 50 µM (HL-60 [27]): 80%; IC50 (HCT-15 [28]): 10 µM; IC50 (THP-1 [29]): 15 µM; inhibition of growth at 50 µM (HCT-15 [30]): 82%; inhibition of growth at 50 µM (MCF7 [31]): 80%; IC50 (SF-295 [32]): 17 µM; inhibition of growth at 30 µM (HCT-15 [33]): 80%; inhibition of growth at 10 µM (PC-3 [34]): 10%; inhibition of growth at 50 µM (PC-3 [35]): 52%; inhibition of growth at 10 µM (HCT-15 [36]): 50% |
